Measured values as given in patent US7282491B2, “Prokaryotic proteasomal proteases of Mycobacterium tuberculosis (MTB) as targets for antibiotic therapy” (Cornell Research Foundation, Inc., priority 2002, dated 2007).

Experiments:
[1] = test system: Rv2115c and Rv2097c mutants; assay type: cell-based, Mycobacterium tuberculosis

## CC(C)C[C@H](NC(=O)[C@H](Cc1cccc2ccccc12)NC(=O)N1CCOCC1)B(O)O [MLN-273, N-[4-morpholine]carbonyl-β-[1-naphthyl]-L-alanine-L-leucine boronic acid]
Rv2115c-mutant Mtb
  augmentation of the toxicity of nitrite against the Rv2115c mutant: augmented the toxicity of nitrite against the Rv2115c mutant
[1]
  growth of Rv2115c and Rv2097c mutants under standard culture conditions: suppressed the growth of these mutants to same extent as for wt Mtb
